Laboratory results: PubChem BioAssay (NCI)
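1) Cells in 96-well plates. 2) Compound, 48 h, 5 concentrations. 3) Linear interpolation between surrounding doses. 4) Unreached endpoint = highest concentration. At the TGI there is no net growth.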

Columns and labels:
Test in all cases: NCI-60 cell line screen, 48 h
786-0 renal = test system: 786-0 renal
A498 renal = test system: A498 renal
A549 NSCLC = test system: A549 NSCLC
ACHN renal = test system: ACHN renal
BT-549 breast = test system: BT-549 breast
CAKI-1 renal = test system: CAKI-1 renal
CCRF-CEM leukemia = test system: CCRF-CEM leukemia
COLO 205 colon = test system: COLO 205 colon
DU-145 prostate = test system: DU-145 prostate
EKVX NSCLC = test system: EKVX NSCLC
HCC-2998 colon = test system: HCC-2998 colon
HCT-116 colon = test system: HCT-116 colon
HCT-15 colon = test system: HCT-15 colon
HOP-62 NSCLC = test system: HOP-62 NSCLC
HOP-92 NSCLC = test system: HOP-92 NSCLC
HS 578T breast = test system: HS 578T breast
HT29 colon = test system: HT29 colon
IGROV1 ovarian = test system: IGROV1 ovarian
K-562 leukemia = test system: K-562 leukemia
KM12 colon = test system: KM12 colon
LOX IMVI melanoma = test system: LOX IMVI melanoma
M14 melanoma = test system: M14 melanoma
MALME-3M melanoma = test system: MALME-3M melanoma
MCF7 breast = test system: MCF7 breast
MDA-MB-231 breast = test system: MDA-MB-231 breast
MDA-MB-435 = test system: MDA-MB-435
MDA-N = test system: MDA-N
NCI-H226 lung = test system: NCI-H226 lung
NCI-H23 lung = test system: NCI-H23 lung
NCI-H460 lung = test system: NCI-H460 lung
NCI-H522 lung = test system: NCI-H522 lung
NCI/ADR-RES ovarian = test system: NCI/ADR-RES ovarian
OVCAR-3 ovarian = test system: OVCAR-3 ovarian
OVCAR-4 ovarian = test system: OVCAR-4 ovarian
OVCAR-5 ovarian = test system: OVCAR-5 ovarian
OVCAR-8 ovarian = test system: OVCAR-8 ovarian
PC-3 prostate = test system: PC-3 prostate
RPMI-8226 leukemia = test system: RPMI-8226 leukemia
RXF 393 renal = test system: RXF 393 renal
SF-268 CNS = test system: SF-268 CNS
SF-295 CNS = test system: SF-295 CNS
SF-539 CNS = test system: SF-539 CNS
SK-MEL-2 melanoma = test system: SK-MEL-2 melanoma
SK-MEL-28 melanoma = test system: SK-MEL-28 melanoma
SK-MEL-5 melanoma = test system: SK-MEL-5 melanoma
SK-OV-3 ovarian = test system: SK-OV-3 ovarian
SN12C renal = test system: SN12C renal
SNB-19 CNS = test system: SNB-19 CNS
SW-620 colon = test system: SW-620 colon
T-47D breast = test system: T-47D breast
TK-10 renal = test system: TK-10 renal
U251 CNS = test system: U251 CNS
UACC-257 melanoma = test system: UACC-257 melanoma
UACC-62 melanoma = test system: UACC-62 melanoma
UO-31 renal = test system: UO-31 renal
HL-60(TB) leukemia = test system: HL-60(TB) leukemia
MOLT-4 leukemia = test system: MOLT-4 leukemia

For CCN(CC)CCNc1ccc2nnn3c4ccc(OC(C)=O)cc4c(=O)c1c23, the TGI (786-0 renal) was > 38.1 µM, the TGI (A498 renal) was 21 µM and the TGI (A549 NSCLC) was > 40.6 µM. It also gave a TGI (ACHN renal) of 12.9 µM, a TGI (BT-549 breast) of 27.2 µM and a TGI (CAKI-1 renal) of 3.31 µM. For the same molecule, the TGI (CCRF-CEM leukemia) was 3.2 µM, the TGI (COLO 205 colon) was 14.6 µM and the TGI (DU-145 prostate) was 15.1 µM. For the same molecule, the TGI (EKVX NSCLC) was 19.3 µM, the TGI (HCC-2998 colon) was 17.4 µM and the TGI (HCT-116 colon) was > 37.5 µM. For the same molecule, the TGI (HCT-15 colon) was 13.6 µM, the TGI (HOP-62 NSCLC) was 12.5 µM and the TGI (HOP-92 NSCLC) was 17.7 µM. The TGI (HS 578T breast) was 19.1 µM, the TGI (HT29 colon) was 11.4 µM and the TGI (IGROV1 ovarian) was 6.38 µM. For the same molecule, the TGI (K-562 leukemia) was > 19.8 µM, the TGI (KM12 colon) was 15.4 µM and the TGI (LOX IMVI melanoma) was 6.83 µM. For the same molecule, the TGI (M14 melanoma) was 21 µM, the TGI (MALME-3M melanoma) was 16.3 µM and the TGI (MCF7 breast) was 16.2 µM. For the same molecule, the TGI (MDA-MB-231 breast) was 16 µM, the TGI (MDA-MB-435) was 18 µM and the TGI (MDA-N) was 17.8 µM. For the same molecule, the TGI (NCI-H226 lung) was 7.62 µM, the TGI (NCI-H23 lung) was 18.9 µM and the TGI (NCI-H460 lung) was 11.5 µM. For the same molecule, the TGI (NCI-H522 lung) was 5.92 µM, the TGI (NCI/ADR-RES ovarian) was 19.1 µM and the TGI (OVCAR-3 ovarian) was 22.2 µM. The TGI (OVCAR-4 ovarian) was 8.73 µM, the TGI (OVCAR-5 ovarian) was 24 µM and the TGI (OVCAR-8 ovarian) was 16.7 µM. For the same molecule, the TGI (PC-3 prostate) was 17.3 µM, the TGI (RPMI-8226 leukemia) was 5.56 µM and the TGI (RXF 393 renal) was 6.19 µM. It also gave a TGI (SF-268 CNS) of 18.1 µM, a TGI (SF-295 CNS) of 19.3 µM and a TGI (SF-539 CNS) of 9.47 µM. For the same molecule, the TGI (SK-MEL-2 melanoma) was 30.7 µM, the TGI (SK-MEL-28 melanoma) was 26.3 µM and the TGI (SK-MEL-5 melanoma) was 11.2 µM. For the same molecule, the TGI (SK-OV-3 ovarian) was 21 µM, the TGI (SN12C renal) was 15.8 µM and the TGI (SNB-19 CNS) was > 43.2 µM. It also gave a TGI (SW-620 colon) of 13.6 µM, a TGI (T-47D breast) of 31.1 µM and a TGI (TK-10 renal) of 16.7 µM. It also gave a TGI (U251 CNS) of 15.5 µM, a TGI (UACC-257 melanoma) of 24.9 µM and a TGI (UACC-62 melanoma) of 25.3 µM. For the same molecule, the TGI (UO-31 renal) was 12.3 µM.
In the case of N#CCCCCC12C3C(=O)N(c4ccccc4)C(=O)C3ON1O[C@@H]1C(=O)N(c3ccccc3)C(=O)[C@@H]12 (stereo partly drawn), the TGI (786-0 renal) is reported as > 100 µM, the TGI (A498 renal) is reported as > 100 µM and the TGI (A549 NSCLC) is reported as > 100 µM. For the same molecule, the TGI (ACHN renal) was > 100 µM, the TGI (BT-549 breast) was > 100 µM and the TGI (CAKI-1 renal) was > 100 µM. For the same molecule, the TGI (CCRF-CEM leukemia) was > 100 µM, the TGI (COLO 205 colon) was > 100 µM and the TGI (DU-145 prostate) was > 100 µM. For the same molecule, the TGI (EKVX NSCLC) was > 100 µM, the TGI (HCC-2998 colon) was > 100 µM and the TGI (HCT-15 colon) was > 100 µM. For the same molecule, the TGI (HL-60(TB) leukemia) was > 100 µM, the TGI (HOP-62 NSCLC) was > 100 µM and the TGI (HOP-92 NSCLC) was > 100 µM. For the same molecule, the TGI (HS 578T breast) was > 100 µM, the TGI (HT29 colon) was > 100 µM and the TGI (IGROV1 ovarian) was > 100 µM. The TGI (K-562 leukemia) was > 100 µM, the TGI (KM12 colon) was > 100 µM and the TGI (LOX IMVI melanoma) was > 100 µM. For the same molecule, the TGI (M14 melanoma) was > 100 µM, the TGI (MALME-3M melanoma) was > 100 µM and the TGI (MCF7 breast) was > 100 µM. The TGI (MDA-MB-231 breast) was > 100 µM, the TGI (MDA-MB-435) was > 100 µM and the TGI (MDA-N) was > 100 µM. The TGI (MOLT-4 leukemia) was > 100 µM, the TGI (NCI-H226 lung) was > 100 µM and the TGI (NCI-H23 lung) was > 100 µM. The TGI (NCI-H460 lung) was > 100 µM, the TGI (NCI-H522 lung) was > 100 µM and the TGI (NCI/ADR-RES ovarian) was > 100 µM. The TGI (OVCAR-3 ovarian) was > 100 µM, the TGI (OVCAR-4 ovarian) was > 100 µM and the TGI (OVCAR-5 ovarian) was > 100 µM. For the same molecule, the TGI (OVCAR-8 ovarian) was > 100 µM, the TGI (PC-3 prostate) was > 100 µM and the TGI (SF-268 CNS) was > 100 µM. For the same molecule, the TGI (SF-295 CNS) was > 100 µM, the TGI (SF-539 CNS) was > 100 µM and the TGI (SK-MEL-28 melanoma) was > 100 µM. The TGI (SK-MEL-5 melanoma) was > 100 µM, the TGI (SK-OV-3 ovarian) was > 100 µM and the TGI (SN12C renal) was > 100 µM. The TGI (SNB-19 CNS) was > 100 µM, the TGI (SW-620 colon) was > 100 µM and the TGI (T-47D breast) was > 100 µM. The TGI (TK-10 renal) was > 100 µM, the TGI (U251 CNS) was > 100 µM and the TGI (UACC-257 melanoma) was > 100 µM. For the same molecule, the TGI (UACC-62 melanoma) was > 100 µM and the TGI (UO-31 renal) was > 100 µM.
